Assay: Dose-escalation Phase I study of nivolumab, ipilimumab and plinabulin: safety (DLT, RP2D, treatment-related AEs, irAEs)
Type: in vivo, human
Conditions: with nivolumab 1 mg/kg and ipilimumab 3 mg/kg, IV day 1 of 21 day cycle; dose-level 2
Source text: In a dose-escalation Phase I study, patients with recurrent extensive-stage small cell lung cancer (SCLC) who had progressed on prior platinum-based chemotherapy were enrolled using a 3+3 design. The primary objective was to determine dose-limiting toxicities (DLT's) and recommended Phase 2 dose (RP2D). Patients were evaluable for DLT if they received at least two cycles of therapy; DLT period was defined as the first six weeks. Secondary endpoints were ORR, PFS and frequency of irAEs. Correlative analysis included inflammatory biomarkers: hsCRP, ESR, SAA and haptoglobin.
Patients received nivolumab (1 mg/kg), ipilimumab (3 mg/kg) and plinabulin (as per dose escalation schema) IV on day 1 of each 21 day cycle. After completion of 4 cycles, patients continued therapy with nivolumab (240 mg) and plinabulin every 2 weeks till progression or intolerable toxicity. Patients were evaluable for DLT if they received at least 2 cycles of therapy; DLT period was defined as the first 6 weeks from C1D1.

CC(C)(C)c1[nH]cnc1/C=c1\[nH]c(=O)/c(=C/c2ccccc2)[nH]c1=O [plinabulin, (3Z,6Z)-3-Benzylidene-6-{[5-(2-methyl-2-propanyl)-1H-imidazol-4-yl]methylene}-2,5-piperazinedione]
recommended Phase 2 dose (RP2D) of plinabulin: 30 mg/m2

— patent publication US12377094B2, “Therapeutic compositions and methods for treating checkpoint inhibitor-resistant tumors using plinabulin-based combination therapies” (BeyondSpring Pharmaceuticals, Inc., priority 2021, dated 2025)
